Data from patent publication US6844320B1, “Treatment of preeclampsia, toxemia and preterm labor with combination of progestational agent and a nitric oxide synthase substrate and/or donor” (Board of Regents, The University of Texas System, priority 1993, dated 2005).
Entries after “also recorded” stand apart in the source; their conditions may differ. Marks after values point to notes of the source that are not given here.

Key:
[1] = system: pregnant rats; experiment: L-NAME infusion to pregnant rats: delivery and pups delivered; format: in vivo
Source text: The data in Table 2 below show the delivery and the pups delivered of L-NAME infusion to pregnant rats.

[2] = system: pregnant rats; experiment: L-NAME infusion in pregnant rats: blood pressure; format: in vivo, rat
Source text: The data in Table 1 below show the effects of L-NAME infusion on blood pressure (mm Hg) in pregnant rats.

[3] = system: spontaneously contracting uterine strips from rat; experiment: Relaxation of spontaneously contracting uterine strips in muscle baths; format: cell-based
Procedure: The tissues were obtained on days 17-22 (d17, d18, d19 and d22) of gestation, on day 22 (d22 del) during spontaeous delivery (1-3 pups delivered), or on 1 (d1pp) and 2 (d2pp) days postpartum. […] Data are analyzed by repeated measures ANOVA on seven groups. […] Each data point represent mean±S.E.M. The total number of strips studied at each time period was 8-16 from 4-6 animals per group.
Each upstroke from baseline represents a contraction.
In the experiments whose results are shown by the graph of FIG. 2, the tissues were obtained on days 17-22 (d17, d18, d19 and d22) of gestation, on day 22 (d22 del) during spontaneous delivery (1-3 pups delivered), or on 1 (d1pp) and 2 (d2pp) days postpartum. […] Each data point represent mean±SEM. The total number of strips studied at each time period was 8-16 from 4-6 animals per group.

[4] = system: L-NAME-induced "preeclampsia" animals; experiment: L-NAME-induced "preeclampsia": blood pressure and fetal weights; format: in vivo; settings: for Effect on L-NAME-induced hypertension (blood pressure): 50 mg L-NAME (FIG. 5); for Effect on fetal weights (pup weights): same L-NAME-treated "preeclamptic" animals (FIG. 6)

Structure (SMILES): COC(=O)[C@@H](N)CCCNC(=N)N[N+](=O)[O-] [L-NAME, N^G-nitro-L-arginine methyl ester]
- Day of Delivery ([1]; L-NAME 25 mg/day): 22.4 ± 0.2
- Weight of pups ([1]; L-NAME 25 mg/day): 5.05 ± 0.08^b
- # of dead pups ([1]; L-NAME 25 mg/day, 9 animals): 5
- Day of Delivery ([1]; L-NAME 50 mg/day): 22.7 ± 0.2
- Weight of pups ([1]; L-NAME 50 mg/day): 4.56 ± 0.10^c
- # of dead pups ([1]; L-NAME 50 mg/day, 10 animals): 10
- Blood Pressure ([2]; L-NAME 25 mg/day infusion, gestation Day 15): 119 ± 2^a mm Hg
- Blood Pressure ([2]; L-NAME 25 mg/day infusion, gestation Day 18): 144 ± 4^b mm Hg
- Blood Pressure ([2]; L-NAME 25 mg/day infusion, gestation Day 22): 146 ± 2^b mm Hg
- Blood Pressure ([2]; L-NAME 50 mg/day infusion, gestation Day 15): 123 ± 3^a mm Hg
- Blood Pressure ([2]; L-NAME 50 mg/day infusion, gestation Day 18): 166 ± 2^c mm Hg
- Blood Pressure ([2]; L-NAME 50 mg/day infusion, gestation Day 22): 168 ± 3^c mm Hg
- Effect on the relaxation produced by L-arginine ([3]; 3 mM (FIG. 1B)): reversed

Structure (SMILES): N=C(N)NCCC[C@H](N)C(=O)O [L-arginine]
- Effect on L-NAME-induced hypertension (blood pressure) [4]: partially reduced blood pressure
- Effect on fetal weights (pup weights) [4]: slightly but statistically significant, elevated fetal weights
- Duration of complete inhibition of spontaneous uterine contractions ([3]; 0.1 mM to 10 mM, strips from days 17-22 of gestation, delivery, postpartum (FIG. 2)): dose-dependent
- Relaxation of spontaneously contracting tissues ([3]; 1 mM (FIG. 1E), repeatable in the same strip): produced relaxation
- Relaxation of spontaneously contracting uterine strips ([3]; 1-3 mM, rat day 18 of gestation (FIG. 1 A, B, E)): substantial relaxations
- Relaxation effects during spontaneous delivery at term and postpartum, compared to all other times ([3]; from concentrations of 1 mM (FIG. 2)): significantly (P<0.01) decreased

Structure (SMILES): CCC(=O)[C@@]1(C)CC[C@H]2[C@@H]3CCC4=CC(=O)CCC4=C3CC[C@@]21C [R 5020, promegestone]
- Effect on L-NAME-induced hypertension (blood pressure) [4]: partinally reduced
- Effect on fetal weights (pup weights) [4]: slightly but statistically significant, elevated fetal weights

Structure (SMILES): CN(C)c1ccc2nc3ccc(=[N+](C)C)cc-3sc2c1 [methylene blue]
- Effect on the relaxation effect of L-arginine (1 mM) ([3]; 0.1 mM, added before the application of L-arginine): abolished
- Effect on the relaxation produced by L-arginine ([3]; (FIG. 1E)): reversed

Structure (SMILES): [N]=O [nitric oxide]
- Relaxation of spontaneously contracting uterine strips ([3]; 0.1 mM, rat day 18 of gestation (FIG. 1D)): substantial relaxations; also recorded: relaxation
